Experimental data reported in PMC11396667, “Design, Synthesis, and Anticancer and Antibacterial Activities of Quinoline-5-Sulfonamides” (Molecules, 2024).

Tests used:
[1] = tested on: C-32 (human amelanotic melanoma) cells; experiment: WST-1 cell viability assay, C-32; assay type: cell-based; conditions: WST-1, 72 h exposure, ± SD, n = 6
Protocol: (§1) The synthesized compounds were tested using three cancer cell lines—human amelanotic melanoma (C-32), human breast adenocarcinoma (MDA-MB-231), and human lung adenocarcinoma (A549)—and, for comparison, normal human dermal fibroblasts (HFF-1). The WST-1 (water-soluble tetrazole salt) assay was used to evaluate the effect of the synthesized compounds on the viability of cultured cells.
(§2) Compounds were evaluated for their antiproliferative activity using three cultured cell lines: C-32 (human amelanotic melanoma, ATCC, Manassas, VA, USA), A549 (human lung adenocarcinoma, ATCC, Manassas, VA, USA), MDA-MB-231 (human breast adenocarcinoma derived from metastatic site: pleural effusion, ATCC, Manassas, VA, USA), together with HFF-1 (normal human dermal fibroblasts, ATCC, Manassas, VA, USA). The cultured cells were kept at 37 °C and 5% CO2.
(§3) Cells were seeded in 96-well plates at 5000/well in 100 μL of medium. After 24 h of incubation, the medium was replaced with a new one with the addition of the test substance. After 72 h, the following tests were performed: with crystal violet (determination of the number of adherent cells in the culture), the WST-1 test (determination of the relative number of living cells and their metabolic activity), and the LDH test (determination of the relative number of dead cells in cultures—cytotoxicity of the tested substance).
(§4) WST-1 test: The WST-1 test (Roche Diagnostics, Mannheim, Germany) allows one to determine the relative number of cells in cultures. Absorbance is directly proportional to the number of cells and their metabolic activity. The absorbance measurement is performed at λ = 450 nm (reference wave 600 nm).

[2] = tested on: MDA-MB-231 (human breast adenocarcinoma) cells; experiment: WST-1 cell viability assay, MDA-MB-231; assay type: cell-based; conditions: WST-1, 72 h exposure, ± SD, n = 6
Protocol: as §1, §2, §3, §4

[3] = tested on: A549 (human lung adenocarcinoma) cells; experiment: WST-1 cell viability assay, A549; assay type: cell-based; conditions: WST-1, 72 h exposure, ± SD, n = 6
Protocol: as §1, §2, §3, §4

[4] = tested on: S. aureus ATCC 29213; experiment: MTT assay of bacterial respiratory activity; assay type: cell-based, Staphylococcus aureus; conditions: S. aureus ATCC 29213
From the text: The MTT assay can be used to assess cell growth by measuring respiration. Bacterial cell respiratory activity (which is ultimately reflected in their viability) of less than 70% after exposure to the MIC values for each test compound is considered as a positive result for this test. This low level of cellular oxidative metabolism indicates inhibition of cell growth by inhibition of respiration. The lowest multiples of the MIC values by which inhibition of S. aureus ATCC 29213 viability [%] greater than 70% was achieved are shown in Table 4. […] Therefore, the antibacterial activity of the discussed compounds cannot be explained solely on the basis of respiration inhibition, so it is very difficult to draw a conclusion regarding the actual mechanism of action, since 8-HQs are multi-target agents, i.e., they affect several different targets at once (as discussed in the section dedicated to anticancer activity), which subsequently leads to the death of the treated resistant microorganisms.
Compounds were prepared as previously stated and diluted in CaMH broth for S. aureus to achieve the desired final concentrations. S. aureus bacterial suspension in sterile distilled water at 0.5 McFarland was diluted 1:3. Inocula were added to each well by multi-inoculator. Diluted mycobacteria in broth free from inhibiting compounds were used as the growth control. All compounds were prepared in duplicate. Plates were incubated at 37 °C for 24 h for S. aureus. After the incubation period, 10% well volume of MTT (3-(4,5-dimethylthiazol-2-yl)-2,5-diphenyltetrazolium bromide) reagent (Sigma) was mixed into each well and incubated at 37 °C 1 h for S. aureus. Then, 100 µL of 17% sodium dodecyl sulphate in 40% dimethylformamide was added to each well. The plates were read at 570 nm. The absorbance readings from the cells grown in the presence of the tested compounds were compared with uninhibited cell growth to determine the relative percent inhibition. The percent inhibition was determined through MTT assay. The percent viability is calculated through the comparison of a measured value and that of the uninhibited control: % viability = OD570E/OD570P × 100, where OD570E is the reading from the compound-exposed cells, while OD570P is the reading from the uninhibited cells (positive control). Cytotoxic potential is determined by a percent viability of <70% [81, 82].

[5] = tested on: HFF-1 (normal human dermal fibroblasts); experiment: WST-1 cell viability assay, normal HFF-1; assay type: cell-based; conditions: ± SD, n = 6
Protocol: as §1, §2, §3, §4

Row | IC50 ([1]; Homo sapiens) [µM] | IC50 ([2]; Homo sapiens, MDA-MB-231) [µM] | IC50 ([3]; Homo sapiens, A549) [µM] | melting point [°C] | Conc.: lowest multiple of MIC with at least 70% inhibition of respiratory activity [4] [× MIC] | SMILES | IC50 [1] [µM] | IC50 [2] [µM] | IC50 [3] [µM] | IC50 ([5]; WST-1, 72 h exposure) [µM] | IC50 ([5]; HFF-1, WST-1, 72 h exposure) [µM]
1 | 42.6 ± 3.4 | > 100 | > 100 | 214 to 216 |  | COc1ccc(S(=O)(=O)N(C)Cc2cn(Cc3ccccc3)nn2)c2cccnc12 [7g, N-Methyl-N-[(1-benzyl-1H-1,2,3-triazol-4-yl)methyl]-8-methoxyquinoline-5-sulfonamide] |  |  |  |  | 
2 | 32.2 ± 4.8 | > 100 | > 100 | 190 to 192 |  | C#CCOc1cccc(NS(=O)(=O)c2ccc(OC)c3ncccc23)c1 [6e, 8-Methoxy-N-[3-(prop-2-yn-1-yloxy)phenyl]quinoline-5-sulfonamide] |  |  |  |  | 
3 | > 100 | 72.2 ± 3.6 | > 100 | 205 to 207 |  | COc1ccc(S(=O)(=O)NCc2cn(CSc3ccccc3)nn2)c2cccnc12 [7e, N-({1-[(Phenylthio)methyl]-1H-1,2,3-triazol-4-yl}methyl)-8-methoxyquinoline-5-sulfonamide] |  |  |  |  | 
4 | > 100 | > 100 | > 100 | 153 to 155 |  | COc1ccc(S(=O)(=O)NC(C)(C)c2cn(Cc3ccccc3)nn2)c2cccnc12 [7f, N-[2-(1-Benzyl-1H-1,2,3-triazol-4-yl)propan-2-yl]-8-methoxyquinoline-5-sulfonamide] |  |  |  |  | 
5 | 27.7 ± 2.2 | > 100 | > 100 | 187 to 189 |  | C#CCOc1ccccc1NS(=O)(=O)c1ccc(OC)c2ncccc12 [6f, 8-Methoxy-N-[2-(prop-2-yn-1-yloxy)phenyl]quinoline-5-sulfonamide] |  |  |  |  | 
6 | 40.6 ± 4.9 | > 100 | > 100 | 217 to 219 |  | C#CC(C)(C)NS(=O)(=O)c1ccc(OC)c2ncccc12 [6b, 8-Methoxy-N-(1,1-dimethyloprop-2-yn-1-yl)quinoline-5-sulfonamide] |  |  |  |  | 
7 | 70.1 ± 8.4 | > 100 | > 100 | 112 to 114 |  | C#CCN(C)S(=O)(=O)c1ccc(OC)c2ncccc12 [6c, 8-Methoxy-N-methyl-N-(prop-2-yn-1-yl)quinoline-5-sulfonamide] |  |  |  |  | 
8 | > 100 | > 100 | > 100 | 161 to 163 |  | C#CCNS(=O)(=O)c1ccc(OC)c2ncccc12 [6a, 8-Methoxy-N-(prop-2-yn-1-yl)quinoline-5-sulfonamide] |  |  |  |  | 
9 | 89 ± 3.5 | > 100 | > 100 | 194 to 196 |  | COc1ccc(S(=O)(=O)NCc2cn(Cc3ccc(F)cc3)nn2)c2cccnc12 [7c, N-{[1-(4-Fluorobenzyl)-1H-1,2,3-triazol-4-yl]methyl}-8-methoxyquinoline-5-sulfonamide] |  |  |  |  | 
10 | 86.4 ± 3.9 | > 100 | > 100 | 217 to 219 |  | C#CCOc1ccc(NS(=O)(=O)c2ccc(OC)c3ncccc23)cc1 [6d, 8-Methoxy-N-[4-(prop-2-yn-1-yloxy)phenyl]quinoline-5-sulfonamide] |  |  |  |  | 
11 | > 100 | > 100 | > 100 | 139 to 141 |  | COc1ccc(S(=O)(=O)Nc2ccc(OCc3cn(Cc4ccccc4)nn3)cc2)c2cccnc12 [7h, N-{4-[(1-Benzyl-1H-1,2,3-triazol-4-yl)methoxy]phenyl}-8-methoxyquinoline-5-sulfonamide] |  |  |  |  | 
12 |  |  |  |  | 32 | O=C(O)c1cn(C2CC2)c2cc(N3CCNCC3)c(F)cc2c1=O [CPX, ciprofloxacin, reference compound] |  |  |  |  | 
13 | > 100 | > 100 | > 100 | 159 to 161 |  | C=CCn1cc(CNS(=O)(=O)c2ccc(OC)c3ncccc23)nn1 [7a, N-[(1-Allyl-1H-1,2,3-triazol-4-yl)methyl]-8-methoxyquinoline-5-sulfonamide] |  |  |  |  | 
14 | > 100 | > 100 | > 100 | 224 to 226 |  | COc1ccc(S(=O)(=O)NCc2cn(-c3ccc(Cl)cc3)nn2)c2cccnc12 [7d, N-{[1-(4-Chlorophenyl)-1H-1,2,3-triazol-4-yl]methyl}-8-methoxyquinoline-5-sulfonamide] |  |  |  |  | 
15 | > 100 | > 100 | > 100 | 170 to 172 |  | COc1ccc(S(=O)(=O)NCc2cn(Cc3ccccc3)nn2)c2cccnc12 [7b, N-[(1-Benzyl-1H-1,2,3-triazol-4-yl)methyl]-8-methoxyquinoline-5-sulfonamide] |  |  |  |  | 
16 |  |  |  |  |  | N.N.[Cl][Pt][Cl] [CPT, cisplatin, reference compound] | 10.6 ± 0.5 | 10.3 ± 0.7 | 17.3 ± 1.3 | 26 ± 2 | 
17 | 0.3 ± 0.02 | 0.6 ± 0.1 | 1 ± 0.1 |  |  | COc1cccc2c1C(=O)c1c(O)c3c(c(O)c1C2=O)C[C@@](O)(C(=O)CO)C[C@@H]3O[C@H]1C[C@H](N)[C@H](O)[C@H](C)O1 [DOX, doxorubicin, reference compound] |  |  |  |  | 1.4 ± 0.1
